Assay: Donor sample analysis by chiral LC/MS/MS (oral fluid)
Format: in vivo
From the text: HPLC conditions were adapted from a separation method posted on the manufacturer's website (Sigma-Aldrich) using UV detection. A Supelco Astec Chirobiotic® V2 chiral column (5 μm particle size, 2.1×250 mm) from Sigma-Aldrich was used to achieve the chiral separation of the enantiomers for amphetamine and methamphetamine. The Chirobiotic® V2 column employs vancomycin as the chiral stationary phase to induce separation. The mobile phase consisted of 99.89:0.1:0.01 methanol:acetic acid:ammonium hydroxide (v/v/v) with a flow rate of 0.5 mL/min. The column temperature was 30° C. The HPLC employed was a Shimadzu Nexera UPLC system (Kyoto, Japan) operating at typical HPLC pressures. The injection volume for the method was 5 μL.
Detection was performed by an API 4000 triple-quadrupole mass spectrometer from AB Sciex (Foster City, Calif., USA). Column eluent was introduced into the mass spectrometer using the Turbolonspray® source operating in the positive ionization mode. Multiple-reaction monitoring (MRM) was used to analyze and detect each compound with a high degree of selectivity. The ionspray voltage was set at 5000V and the source temperature was 550° C. Parameters such as declustering potential (DP), collision energy (CE) and entrance and exit potentials (EP and CXP) were optimized for each analyte. The total analysis time for the method is 10 minutes.
Sample extraction was accomplished by aliquoting 200 μL of oral fluid sample into a 16×75 mm culture tube and adding 50 μL of internal standard (200 ng/mL racemic D11-amphetamine and […]). The sample was then treated with 25 μL of 10% sodium periodate solution and allowed to sit for 30 minutes after mixing. A 500 μL aliquot of 0.1 M phosphoric acid was added to each sample and mixed prior to transfer to the SPE wells.
The Agilent SPEC-DAU 96-well SPE plate was conditioned with 1 mL of methanol followed by 0.5 mL of 0.1 M phosphoric acid. Nitrogen gas was used to apply positive pressure for all SPE steps to induce a flow rate of about 1 to 2 mL per minute. […]
Several donor samples have been analyzed by this method. […]

Compound | % d-amphetamine in samples containing amphetamine (9 out of 25 donor samples, consistent with Adderall use) | % d-amphetamine in samples containing amphetamine (the remaining donor samples) [%] | % d-methamphetamine in samples containing methamphetamine (all donor samples containing methamphetamine) [%]
C[C@H](N)Cc1ccccc1 [d-Amphetamine, d-amphetamine] | approximately 70% | 100 | 
CN[C@@H](C)Cc1ccccc1 [d-Methamphetamine, d-methamphetamine] |  |  | > 90

— US20130177994A1, “METHODS FOR QU[…] DETERMINATION OF THE d- AND l- ENANTIOMERS OF AMPHETAMINE AND METHAMPHETAMINE” (CLINICAL REFERENCE LABORATORY, INC., priority 2012, published 2013)
